In patent US8802673B2, “Heterocyclic amine derivatives” (Hoffmann-La Roche Inc, priority 2011, dated 2014):

Key:
rat TAAR1 = rat TAAR1 (Rattus norvegicus (Rat), UniProt Q923Y9); test: Radioligand binding assay on rat TAAR1; settings: rat TAAR1 (second value of the cell), HEK-293 membranes; read-out: Ki (μM) mouse/rat
Method in brief: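 Membranes from HEK293 cells stably expressing rat TAAR1 were used, with radioligand Kd determined by saturation for each batch. Compounds (10 pM to 10 μM, in duplicate) were incubated for 1 h at 4 °C. Bound radioactivity was collected by filtration onto PEI-soaked GF/C filters and counted by scintillation.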

mouse TAAR1 = mouse TAAR1 (Mus musculus (Mouse), UniProt Q923Y8); test: Radioligand binding assay on mouse TAAR1; settings: mouse TAAR1 (first value of the cell), HEK-293 membranes; read-out: Ki (μM) mouse/rat
Chain of mouse TAAR1 (Q923Y8 whole entry): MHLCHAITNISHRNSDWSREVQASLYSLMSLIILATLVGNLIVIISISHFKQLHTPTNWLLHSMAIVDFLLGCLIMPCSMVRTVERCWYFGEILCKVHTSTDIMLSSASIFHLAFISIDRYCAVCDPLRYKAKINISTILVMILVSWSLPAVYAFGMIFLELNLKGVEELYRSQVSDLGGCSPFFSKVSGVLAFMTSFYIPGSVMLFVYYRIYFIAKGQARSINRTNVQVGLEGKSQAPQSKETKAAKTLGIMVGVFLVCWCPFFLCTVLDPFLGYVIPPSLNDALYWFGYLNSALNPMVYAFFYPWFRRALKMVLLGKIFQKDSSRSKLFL
Method in brief: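 Membranes from HEK293 cells stably expressing mouse TAAR1, Kd of radioligand determined per batch by saturation. Compounds tested 10 pM to 10 μM in duplicate, incubated 1 h at 4 °C, then filtration over PEI-soaked GF/C filters and scintillation counting.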

Chain of rat TAAR1 (Q923Y9 whole entry): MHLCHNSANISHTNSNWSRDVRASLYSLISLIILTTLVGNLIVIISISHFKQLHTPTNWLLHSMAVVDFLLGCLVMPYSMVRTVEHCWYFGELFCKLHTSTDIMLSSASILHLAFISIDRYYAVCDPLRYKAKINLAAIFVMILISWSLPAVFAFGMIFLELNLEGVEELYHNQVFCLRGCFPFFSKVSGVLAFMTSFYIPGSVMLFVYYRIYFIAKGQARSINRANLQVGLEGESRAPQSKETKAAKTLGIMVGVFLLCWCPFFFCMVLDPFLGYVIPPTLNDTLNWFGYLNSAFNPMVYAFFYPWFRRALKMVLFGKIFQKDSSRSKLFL

SMILES	Ki (rat TAAR1)	Ki (mouse TAAR1)
Cc1cc(Nc2ccc([C@H]3CNCCO3)cc2)ncc1Br [Example 62, (S)-5-Bromo-4-methyl-N-(4-(morpholin-2-yl)phenyl)pyridin-2-amine]	0.0094 µM	0.0005 µM
Clc1cc(Nc2ccc([C@H]3CNCCO3)cc2)c(Cl)cn1 [Example 63, (S)-2,5-Dichloro-N-(4-(morpholin-2-yl)phenyl)pyridin-4-amine]	1.49 µM	0.373 µM
Cc1cnc(Nc2ccc([C@H]3CNCCO3)cc2)cc1Br [Example 64, (S)-4-Bromo-5-methyl-N-(4-(morpholin-2-yl)phenyl)pyridin-2-amine]	0.101 µM	0.0027 µM
c1cc([C@H]2CNCCO2)ccc1Nc1ccc2c(c1)OCO2 [Example 65, (S)—N-(4-(Morpholin-2-yl)phenyl)benzo[d][1,3]dioxol-5-amine]	0.629 µM	0.0131 µM
Clc1ccc(Nc2ccc([C@@H]3CNCCO3)cc2)cn1 [Example 67, (R)-6-Chloro-N-(4-(morpholin-2-yl)phenyl)pyridin-3-amine]	0.292 µM	0.0074 µM
CCc1cnc(Nc2ccc([C@@H]3CNCCO3)cc2)nc1 [Example 68, (R)-5-Ethyl-N-(4-(morpholin-2-yl)phenyl)pyrimidin-2-amine]	0.0751 µM	0.0094 µM
Clc1ccc(Nc2ccc([C@@H]3CNCCO3)cc2)nc1 [Example 69, (R)-5-Chloro-N-(4-(morpholin-2-yl)phenyl)pyridin-2-amine]	0.0438 µM	0.0014 µM
CCOc1cc(Nc2ccc([C@H]3CNCCO3)cc2)cnc1Cl [Example 71, (S)-6-Chloro-5-ethoxy-N-(4-(morpholin-2-yl)phenyl)pyridin-3-amine]	0.168 µM	0.0118 µM
CCc1cnc(Nc2ccc([C@H]3CNCCO3)cc2)nc1C [Example 72, (5-Ethyl-4-methyl-pyrimidin-2-yl)-((S)-4-morpholin-2-yl-phenyl)-amine]	0.22 µM	0.0171 µM
Cc1nc(Nc2ccc([C@H]3CNCCO3)cc2)ncc1C(C)C [Example 73, (5-Isopropyl-4-methyl-pyrimidin-2-yl)-((S)-4-morpholin-2-yl-phenyl)-amine]	0.035 µM	0.0096 µM
c1cc([C@H]2CNCCO2)ccc1Nc1ncc2c(n1)CCCC2 [Example 74, ((S)-4-Morpholin-2-yl-phenyl)-(5,6,7,8-tetrahydro-quinazolin-2-yl)-amine]	0.0295 µM	0.0059 µM
O=[N+]([O-])c1cnc(Nc2ccc([C@H]3CNCCO3)cc2)nc1 [Example 75, ((S)-4-Morpholin-2-yl-phenyl)-(5-nitro-pyrimidin-2-yl)-amine]	0.228 µM	0.0141 µM
Fc1cc(Cl)cnc1Nc1ccc([C@H]2CNCCO2)cc1 [Example 77, (S)-5-Chloro-3-fluoro-N-(4-(morpholin-2-yl)phenyl)pyridin-2-amine]	0.13 µM	0.0053 µM
CS(=O)(=O)c1cnc(Nc2ccc([C@H]3CNCCO3)cc2)nc1 [Example 78, (5-Methanesulfonyl-pyrimidin-2-yl)-((S)-4-morpholin-2-yl-phenyl)-amine]	3.19 µM	0.11 µM
FC(F)(F)c1cc(Nc2ccc([C@H]3CNCCO3)cc2)ncc1Cl [Example 82, (S)-5-Chloro-N-(4-(morpholin-2-yl)phenyl)-4-(trifluoromethyl)pyridin-2-amine]	0.0101 µM	0.0008 µM
Cc1cc(Nc2ccc([C@H]3CNCCO3)cc2)ncc1Cl [Example 83, (S)-5-Chloro-4-methyl-N-(4-(morpholin-2-yl)phenyl)pyridin-2-amine]	0.0222 µM	0.0006 µM
c1cc([C@@H]2CNCCO2)ccc1Nc1ncc(C2CC2)cn1 [Example 86, (5-Cyclopropyl-pyrimidin-2-yl)-((R)-4-morpholin-2-yl-phenyl)-amine]	0.009 µM	0.0024 µM
CCCc1cnc(Nc2ccc([C@@H]3CNCCO3)cc2)nc1 [Example 93, ((R)-4-Morpholin-2-yl-phenyl)-(5-propyl-pyrimidin-2-yl)-amine]	0.0222 µM	0.005 µM
FC(F)(F)c1cnc(Nc2ccc([C@@H]3CNCCO3)cc2)nc1 [Example 95, ((R)-4-Morpholin-2-yl-phenyl)-(5-trifluoromethyl-pyrimidin-2-yl)-amine]	0.0223 µM	0.0057 µM
Clc1cnc(Nc2ccc([C@@H]3CNCCO3)cc2)nc1 [Example 103, (R)-5-Chloro-N-(4-(morpholin-2-yl)phenyl)pyrimidin-2-amine]	0.05 µM	0.0044 µM
Clc1cnc(Nc2ccc([C@H]3CNCCO3)cc2)nc1 [Example 104, (S)-5-Chloro-N-(4-(morpholin-2-yl)phenyl)pyrimidin-2-amine]	0.105 µM	0.0041 µM

SMILES	Ki (rat TAAR1)	Ki (mouse TAAR1)
CCOc1cnc(Nc2ccc([C@@H]3CNCCO3)cc2)nc1 [Example 105, (5-Ethoxy-pyrimidin-2-yl)-((R)-4-morpholin-2-yl-phenyl)-amine]	0.127 µM	0.0116 µM
CCc1cnc(Nc2ccc([C@@H]3CNCCO3)cc2C)nc1 [Example 106, (5-Ethyl-pyrimidin-2-yl)-((R)-2-methyl-4-morpholin-2-yl-phenyl)-amine]	0.0814 µM	0.0086 µM
CCc1cnc(Nc2ccc([C@H]3CNCCO3)cc2C)nc1 [Example 107, (5-Ethyl-pyrimidin-2-yl)-((S)-2-methyl-4-morpholin-2-yl-phenyl)-amine]	0.0877 µM	0.005 µM
CCc1cnc(Nc2ccc([C@@H]3CCCNC3)cc2)nc1 [Example 112, (5-Ethyl-pyrimidin-2-yl)-((S)-4-piperidin-3-yl-phenyl)-amine]	0.197 µM	0.0038 µM
c1ccc(-c2cc(Nc3ccc([C@H]4CNCCO4)cc3)n[nH]2)cc1 [Example 113, (S)—N-(4-(Morpholin-2-yl)phenyl)-5-phenyl-1H-pyrazol-3-amine]	0.0877 µM	0.0011 µM
CCOc1cnc(Nc2ccc([C@@H]3CCCNC3)cc2)nc1 [Example 114, (5-Ethoxy-pyrimidin-2-yl)-((S)-4-piperidin-3-yl-phenyl)-amine]	0.996 µM	0.0212 µM
c1ccc(-c2nnc(Nc3ccc([C@H]4CNCCO4)cc3)o2)cc1 [Example 115, (S)—N-(4-(Morpholin-2-yl)phenyl)-5-phenyl-1,3,4-oxadiazol-2-amine]	0.235 µM	0.0079 µM
CCc1cnc(Nc2ccc([C@@H]3CNCCO3)cc2F)nc1 [Example 116, (5-Ethyl-pyrimidin-2-yl)-((R)-2-fluoro-4-morpholin-2-yl-phenyl)-amine]	0.007 µM	0.0039 µM
CCc1cnc(Nc2ccc([C@H]3CNCCO3)cc2F)nc1 [Example 117, (5-Ethyl-pyrimidin-2-yl)-((S)-2-fluoro-4-morpholin-2-yl-phenyl)-amine]	0.0104 µM	0.0034 µM
CC(C)Oc1cnc(Nc2ccc([C@H]3CNCCO3)cc2)nc1 [Example 122, (5-Isopropoxy-pyrimidin-2-yl)-((S)-4-morpholin-2-yl-phenyl)-amine]	0.0847 µM	0.0079 µM
CC(C)Oc1cnc(Nc2ccc([C@@H]3CNCCO3)cc2)nc1 [Example 123, (5-Isopropoxy-pyrimidin-2-yl)-((R)-4-morpholin-2-yl-phenyl)-amine]	0.0796 µM	0.0174 µM
c1cc([C@H]2CNCCO2)ccc1Nc1ncc(OCC2CC2)cn1 [Example 124, (S)-5-(Cyclopropylmethoxy)-N-(4-(morpholin-2-yl)phenyl)pyrimidin-2-amine]	0.0348 µM	0.0036 µM
c1cc([C@@H]2CNCCO2)ccc1Nc1ncc(OCC2CC2)cn1 [Example 125, (R)-5-(Cyclopropylmethoxy)-N-(4-(morpholin-2-yl)phenyl)pyrimidin-2-amine]	0.0278 µM	0.0045 µM
CCCc1cnc(Nc2ccc([C@@H]3CNCCO3)cc2F)nc1 [Example 128, ((R)-2-Fluoro-4-morpholin-2-yl-phenyl)-(5-propyl-pyrimidin-2-yl)-amine]	0.0039 µM	0.0049 µM
CCCc1cnc(Nc2ccc([C@H]3CNCCO3)cc2F)nc1 [Example 129, ((S)-2-Fluoro-4-morpholin-2-yl-phenyl)-(5-propyl-pyrimidin-2-yl)-amine]	0.0068 µM	0.0043 µM
Fc1cc([C@@H]2CNCCO2)ccc1Nc1ncc(Cl)cn1 [Example 130, (5-Chloro-pyrimidin-2-yl)-((R)-2-fluoro-4-morpholin-2-yl-phenyl)-amine]	0.0199 µM	0.0051 µM
Fc1cc([C@H]2CNCCO2)ccc1Nc1ncc(Cl)cn1 [Example 131, (5-Chloro-pyrimidin-2-yl)-((S)-2-fluoro-4-morpholin-2-yl-phenyl)-amine]	0.0379 µM	0.0028 µM
CCOc1cnc(Nc2ccc([C@@H]3CNCCO3)cc2F)nc1 [Example 132, (5-Ethoxy-pyrimidin-2-yl)-((R)-2-fluoro-4-morpholin-2-yl-phenyl)-amine]	0.0182 µM	0.0047 µM
CCOc1cnc(Nc2ccc([C@H]3CNCCO3)cc2F)nc1 [Example 133, (5-Ethoxy-pyrimidin-2-yl)-((S)-2-fluoro-4-morpholin-2-yl-phenyl)-amine]	0.0387 µM	0.0052 µM
Fc1cc([C@@H]2CNCCO2)ccc1Nc1ncc(C(F)(F)F)cn1 [Example 134, ((R)-2-Fluoro-4-morpholin-2-yl-phenyl)-(5-trifluoromethyl-pyrimidin-2-yl)-amine]	0.0079 µM	0.0069 µM
Fc1cc([C@H]2CNCCO2)ccc1Nc1ncc(C(F)(F)F)cn1 [Example 135, ((S)-2-Fluoro-4-morpholin-2-yl-phenyl)-(5-trifluoromethyl-pyrimidin-2-yl)-amine]	0.0198 µM	0.0057 µM
